Assay results taken from US8211916B2, “N- and O-substituted 4-[2-(diphenylmethoxy)-ethyl]-1-[(phenyl)methyl]piperidine analogs and methods of treating CNS disorders therewith” (Wayne State University, priority 2000, dated 2012).
Counter-ions that a name gives are not always drawn. Like-named read-outs stand apart in the source and are kept apart here.

Key:
[1] = molecular target: rat DAT (Rattus norvegicus, UniProt P23977); experiment: Rat DAT binding, [3H]Win 35,428, striatal membranes
Description: (§1) Briefly, rat striatal membranes were incubated with radioligand and inhibitor for 2 h on ice in a sodium phosphate buffer at a final Na^+ concentration of 30 nM, pH 7.4, at room temperature. The assays were terminated by filtration through glass fiber filtermats (Wallac, Inc., Gaithersburg, Md.), presoaked in 0.05% (v/v) polyethyleneimine, with a MACH3-96 Tomtec harvester (Wallac, Inc.). Filters were assayed for radioactivity in a Microbeta Plus liquid scintillation counter (Wallac, Inc.).

[2] = molecular target: T1, rat SERT (Rattus norvegicus, UniProt P31652); experiment: Rat SERT binding, [3H]citalopram, striatal membranes
T1 construct: from tissue; host or cells: rat striatum (membranes)
Description: as §1

[3] = molecular target: T2, Norepinephrine (NET) Transporter (Rattus norvegicus, UniProt Q63380); experiment: NET binding, [3H]nisoxetine
T2 construct: and norepinephrine Transporters in Rat Striatum; from tissue

[4] = molecular target: T3, DAT (Rattus norvegicus, UniProt P23977); experiment: Uptake of [3H]DA by DAT, rat striatum; type: biochemical; details: for Ki: [3H]DA uptake, rat striatum
T3 construct: from tissue; host or cells: rat striatum
Excerpt: Transporter assays. The affinity of test compounds in binding to rat DAT and in inhibiting monoamine uptake was monitored as described by us previously. […] Rat cerebral cortex was used for assessing uptake of [^3H]serotonin by SERT and hippocampus for uptake of [^3H]NE by NET. […] At lease five triplicate concentrations of each test compound were studied, spaced evenly around the IC50 value. The latter was estimated by nonlinear computer curve-fitting procedures and converted to Ki with the Cheng-Prusoff equation.

[5] = Ki (DAT), inhibition of DA uptake
[6] = read-out: Ki (DAT), inhibition of DA uptake

T1 sequence (P31652 whole entry): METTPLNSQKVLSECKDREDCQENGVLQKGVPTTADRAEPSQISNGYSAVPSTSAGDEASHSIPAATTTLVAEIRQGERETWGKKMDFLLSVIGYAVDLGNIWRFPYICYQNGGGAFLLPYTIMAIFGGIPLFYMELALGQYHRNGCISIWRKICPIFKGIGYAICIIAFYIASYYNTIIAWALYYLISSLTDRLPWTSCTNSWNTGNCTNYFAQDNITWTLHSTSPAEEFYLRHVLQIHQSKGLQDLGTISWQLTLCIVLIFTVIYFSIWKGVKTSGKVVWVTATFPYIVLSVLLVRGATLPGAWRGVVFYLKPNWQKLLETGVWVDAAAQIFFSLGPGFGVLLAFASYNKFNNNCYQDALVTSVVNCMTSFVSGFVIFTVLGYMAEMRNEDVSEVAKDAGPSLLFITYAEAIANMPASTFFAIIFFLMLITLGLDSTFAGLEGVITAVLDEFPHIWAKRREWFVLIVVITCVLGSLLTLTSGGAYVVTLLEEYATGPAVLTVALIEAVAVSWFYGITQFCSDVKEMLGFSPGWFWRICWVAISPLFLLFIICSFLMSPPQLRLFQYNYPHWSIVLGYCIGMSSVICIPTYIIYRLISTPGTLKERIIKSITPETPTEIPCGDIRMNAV
Chain of rat DAT (P23977 whole entry): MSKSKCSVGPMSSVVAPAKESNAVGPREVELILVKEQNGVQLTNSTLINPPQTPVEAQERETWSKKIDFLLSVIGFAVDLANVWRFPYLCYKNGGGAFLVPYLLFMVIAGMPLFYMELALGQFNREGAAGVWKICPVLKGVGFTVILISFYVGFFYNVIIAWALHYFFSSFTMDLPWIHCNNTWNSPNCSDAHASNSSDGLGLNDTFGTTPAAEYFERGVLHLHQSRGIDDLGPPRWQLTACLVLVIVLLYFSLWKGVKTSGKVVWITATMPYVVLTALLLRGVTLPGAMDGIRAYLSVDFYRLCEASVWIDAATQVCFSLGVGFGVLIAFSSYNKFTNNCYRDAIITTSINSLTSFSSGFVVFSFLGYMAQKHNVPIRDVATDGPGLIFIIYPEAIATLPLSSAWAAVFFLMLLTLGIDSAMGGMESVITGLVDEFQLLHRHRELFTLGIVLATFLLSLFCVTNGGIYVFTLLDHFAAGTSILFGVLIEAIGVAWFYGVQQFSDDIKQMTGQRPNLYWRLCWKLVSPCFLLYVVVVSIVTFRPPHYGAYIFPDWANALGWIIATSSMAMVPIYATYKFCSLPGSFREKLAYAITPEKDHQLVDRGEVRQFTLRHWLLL
T3 sequence (P23977 whole entry): as above
T2 sequence (Q63380 1-617): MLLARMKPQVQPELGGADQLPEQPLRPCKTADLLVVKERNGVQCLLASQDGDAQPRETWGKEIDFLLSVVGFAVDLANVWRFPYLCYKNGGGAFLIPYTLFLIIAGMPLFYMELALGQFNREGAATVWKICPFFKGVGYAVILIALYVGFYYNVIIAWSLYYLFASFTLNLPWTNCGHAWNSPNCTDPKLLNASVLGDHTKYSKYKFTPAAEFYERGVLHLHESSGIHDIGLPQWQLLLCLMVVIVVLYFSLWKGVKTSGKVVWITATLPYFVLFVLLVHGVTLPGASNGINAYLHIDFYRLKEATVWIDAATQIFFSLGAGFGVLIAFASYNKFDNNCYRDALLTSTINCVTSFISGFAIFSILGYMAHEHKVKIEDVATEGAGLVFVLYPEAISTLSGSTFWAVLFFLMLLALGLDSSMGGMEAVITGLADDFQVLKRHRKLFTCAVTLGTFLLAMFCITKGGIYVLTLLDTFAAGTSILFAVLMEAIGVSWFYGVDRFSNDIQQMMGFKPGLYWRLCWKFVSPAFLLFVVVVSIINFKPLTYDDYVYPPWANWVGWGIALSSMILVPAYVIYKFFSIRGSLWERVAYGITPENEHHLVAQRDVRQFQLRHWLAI

Row | Compound | IC50 ([2]; Table 1, read-out: SERT, IC50) | melting point | also measured
1 | CN(CCC1CCN(Cc2ccccc2)CC1)C(c1ccccc1)c1ccccc1 [Example 10, 4-[2-((Diphenylmethyl)-N-methylamino)ethyl]-1-(4-phenylmethyl)piperidine] | 1660 ± 469 nM | – | IC50 ([1]; read-out: DAT, IC50, Table 1): 213 ± 3 nM
2 | O=C1CN(Cc2ccc(F)cc2)CCC1CCOC(c1ccccc1)c1ccccc1 (racemic) (as salt: oxalate) (hydrate or solvate) [Example 18, racemic 3-Keto-4-[2-(diphenylmethoxy)ethyl]-1-[(4-fluorophenyl)methyl]piperidine] | – | 104 to 109 °C | –
3 | Fc1ccc(CN2CCC(CCOC(c3ccccc3)c3ccccc3)CC2)cc1F (as salt: oxalate) [Example 2, 4-[2-(Diphenylmethoxy)ethyl]-1-[(3,4-difluorophenyl)methyl]piperidine] | – | 158 to 159 °C | –
4 | OC1CN(Cc2ccc(F)cc2)CCC1CCOC(c1ccccc1)c1ccccc1 (racemic) (as salt: oxalate) [Example 16, racemic trans-3-hydroxy-4-[2-diphenylmethoxy)ethyl]-1-[(4-fluorophenyl)methyl]piperidine] | – | 143 to 150 °C | –
5 | Fc1ccc(C(NCC2CCN(CCc3ccccc3)CC2)c2ccc(F)cc2)cc1 [Example 12, 4-[(Bis(4-fluorophenyl)methylamino)methyl]-1-[2-(phenyl)ethyl]piperidine] | 1100 ± 246 nM | – | IC50 ([1]; read-out: DAT, IC50): 65.3 ± 3.2 nM
6 | OC1CN(Cc2ccc(F)cc2)CCC1CCOC(c1ccccc1)c1ccccc1 (racemic) [Example 16, racemic trans-3-hydroxy-4-[2-diphenylmethoxy)ethyl]-1-[(4-fluorophenyl)methyl]piperidine] | – | – | IC50 [1]: 5.96 ± 1.26 nM; IC50 ([3]; Table 5, rat striatum, read-out: NET, IC50, nM [3H]nisoxetine): 637 ± 114 nM; IC50 [2]: 1110 nM
7 | OC(CN1CCN2CC1CCC2C(c1ccccc1)c1ccccc1)c1ccc(F)cc1 [Example 7c, (R)-2-((5S,8S)-8-benzhydryl-1,4-diazabicyclo[3.3.1]nonane-2-yl)-1-4-fluorophenyl)ethanol] | – | – | Ki [4, 5]: 66.5 nM
8 | Oc1cccc(CN2CCC(CCOC(c3ccccc3)c3ccccc3)CC2)c1 [Example 3-OH, 4-[2-(diphenylmethoxy)ethyl]-1-[(3-hydroxyphenyl)methyl]piperidine] | 984 ± 94 nM | – | IC50 ([1]; read-out: DAT, IC50, Table 1): 14.3 ± 3.7 nM; IC50 ([3]; Table 1, read-out: NET, IC50): 678 ± 13 nM
9 | CN(CC1CCN(Cc2ccc(F)cc2)CC1)CC(c1ccccc1)c1ccccc1 [Example 13] | 2520 ± 230 nM | – | IC50 ([1]; read-out: DAT, IC50, Table 1): 94 ± 12.5 nM
10 | 1-((5S,8S)-8-benzhydryl-1,4-diazabicyclo[3.3.1]nonane-2-yl)-3-phenylpropan-2-ol [Example 6b] | – | – | Ki [4, 6]: 16.8 nM
11 | Fc1ccc(CN2CCC(CCNC(c3ccccc3)c3ccccc3)CC2)cc1F (as salt: HCl) [Example 8, 4-[2-((Diphenylmethyl)amino)ethyl]-1-[(3,4-difluorophenyl)methyl]piperidine] | – | 280 to 281 °C | –
12 | N#Cc1ccc(CN2CCC(CCOC(c3ccccc3)c3ccccc3)CC2)cc1 (as salt: oxalate) [Example 4, 4-[2-(Diphenylmethoxy)ethyl]-1-[(4-cyanophenyl)methyl]piperidine] | – | 120 to 121 °C | –
13 | O=C(Cc1ccccc1)N1CCC(CCOC(c2ccccc2)c2ccccc2)CC1 [Example 5, 4-[2-(Diphenylmethoxy)ethyl]-1-[(phenylmethyl)carbonyl]piperidine] | > 1000 nM | – | IC50 ([1]; read-out: DAT, IC50): 2160 ± 54 nM
14 | CS(=O)(=O)Nc1ccc(CN2CCC(CCOC(c3ccccc3)c3ccccc3)CC2)cc1 (as salt: oxalate) [Example 6, 4-[2-(Diphenylmethoxy)ethyl]-1-[((4-methylsulfonylamino)phenyl)methyl]piperidine] | – | 122 to 124 °C | –
15 | Fc1cccc(CN2CCC(CCOC(c3ccccc3)c3ccccc3)CC2)c1 [Example 1, 4-[2-(Diphenylmethoxy)ethyl]-1-[(3-fluorophenyl)methyl]piperidine] | 1150 ± 43.4 nM | – | IC50 ([1]; read-out: DAT, IC50, Table 1): 23.4 ± 3.8 nM
16 | CN(CC1CCN(Cc2ccc(F)cc2)CC1)CC(c1ccccc1)c1ccccc1 (as salt: oxalate) [Example 13] | – | 144 to 145 °C | –
17 | OC(CCN1CCN2CC1CCC2C(c1ccccc1)c1ccccc1)c1ccc(F)cc1 (single isomer, unassigned) [Example 11b] | – | – | Ki [4, 5]: 8.63 nM; NET/DAT ([4]; uptake inhibition selectivity, norepinephrine vs dopamine): 48.4; SERT/DAT ([4]; uptake inhibition selectivity, serotonin vs dopamine): 172
18 | O[C@@H](CN[C@H]1CC[C@@H](C(c2ccccc2)c2ccccc2)NC1)Cc1ccccc1 [Example 4c, (R)-1-[(3S,6S)-6-benzhydrylpiperidin-3-ylamino)-3-phenylpropan-2-ol] | – | – | Ki [4, 6]: 25 nM
19 | Fc1ccc(CN2CCC(CNOC(c3ccccc3)c3ccccc3)CC2)cc1 (as salt: oxalate) [Example 7, 4-[((2-Diphenylmethoxy)amino)methyl]-1-[(4-fluorophenyl)methyl]piperidine] | – | 154 to 155 °C | –
20 | OC(CCN1CCN2CC1CCC2C(c1ccccc1)c1ccccc1)c1ccc(F)cc1 (single isomer, unassigned) [Example 11a] | – | – | Ki [4, 5]: 41.8 nM
21 | CC(NCCC1CCN(Cc2ccc(F)cc2)CC1)c1ccccc1 (centres unmarked) (as salt: oxalate) [Example 14, 4[2-[(1-(phenyl)ethyl)amino]ethyl]-1-[(4-fluorophenyl)methyl]piperidine] | – | 172 to 173 °C | –
22 | CC(NCCC1CCN(Cc2ccc(F)cc2)CC1)c1ccccc1 (centres unmarked) [Example 14, 4[2-[(1-(phenyl)ethyl)amino]ethyl]-1-[(4-fluorophenyl)methyl]piperidine] | 963 ± 38.5 nM | – | IC50 ([1]; read-out: DAT, IC50, Table 1): 295 ± 40.9 nM
23 | CC(OCCC1CCN(Cc2ccc(F)cc2)CC1)c1ccccc1 (centres unmarked) [4-[((1-phenylethoxy)ethyl]-1-[(4-fluorophenyl)methyl]piperidine] | 5860 ± 595 nM | – | IC50 ([1]; read-out: DAT, IC50, Table 1): 751 ± 61.6 nM
24 | 1-((5S,8S)-8-benzhydryl-1,4-diazabicyclo[3.3.1]nonane-2-yl)-3-phenylpropan-2-ol [Example 6a] | – | – | Ki [4, 6]: 82.9 nM
25 | Fc1ccc(C(NCC2CCN(CCc3ccccc3)CC2)c2ccc(F)cc2)cc1 (as salt: HCl) [Example 12, 4-[(Bis(4-fluorophenyl)methylamino)methyl]-1-[2-(phenyl)ethyl]piperidine] | – | 214 to 215 °C | –
26 | Fc1ccc(CN2CCC(CNCC(c3ccccc3)c3ccccc3)CC2)cc1 (as salt: HCl) [Example 11, 4-[[2-(Diphenyl)ethyl]aminomethyl]-1-[(4-fluorophenyl)methyl]piperidine] | – | 126 to 127 °C | –
27 | FC(F)(F)c1ccc(CN2CCC(CCOC(c3ccccc3)c3ccccc3)CC2)cc1 [Example 3, 4-[2-(Diphenylmethoxy)ethyl]-1-[((4-trifluoromethyl)phenyl)methyl]piperidine] | 2260 ± 144 nM | – | IC50 ([1]; read-out: DAT, IC50): 32.1 ± 2.1 nM
28 | Fc1cccc(CN2CCC(CCOC(c3ccccc3)c3ccccc3)CC2)c1 (as salt: oxalate) [Example 1, 4-[2-(Diphenylmethoxy)ethyl]-1-[(3-fluorophenyl)methyl]piperidine] | – | 150 to 151 °C | –
29 | O[C@H](CN[C@H]1CC[C@@H](C(c2ccccc2)c2ccccc2)NC1)Cc1ccccc1 [Example 4d, (S)-1-[(3S,6S)-6-benzhydrylpiperidin-3-ylamino)-3-phenylpropan-2-ol] | – | – | Ki [4, 6]: 25.3 nM
30 | Ic1ccc(CN2CCC(CCOC(c3ccccc3)c3ccccc3)CC2)cc1 (as salt: oxalate) [Example 19, 4-[2-(diphenylmethoxy)ethyl]-1-[(4-iodophenyl)methyl]piperidine] | – | 160 to 161 °C | –
